Legend:
[1] = test system: AXIN2 transcripts in COLO320DM cells; assay: qPCR of AXIN2 transcripts in COLO320DM cells; assay type: cell-based, human
Source text: RT-qPCR. […] Relative gene expression levels were monitored using the Taqman Gene Expression probes for AXIN2 (Hs00610344 m1, ThermoFisher), SP5 (Hs01370227-mH, ThermoFisher), RNF43 (Hs00214886-m1, ThermoFisher), NOTUM (Hs00991061-m1, ThermoFisher), CXCL12 (Hs03676656-mH, ThermoFisher).

[2] = molecular target: T1, beta-catenin/TCF4 interaction (Homo sapiens, UniProt P35222); assay: Co-immunoprecipitation of endogenous beta-catenin in DLD1 cells; assay type: cell-based
T1 construct: endogenous in cells; host or cells: DLD1
T1 sequence (P35222 2-781 limits assumed): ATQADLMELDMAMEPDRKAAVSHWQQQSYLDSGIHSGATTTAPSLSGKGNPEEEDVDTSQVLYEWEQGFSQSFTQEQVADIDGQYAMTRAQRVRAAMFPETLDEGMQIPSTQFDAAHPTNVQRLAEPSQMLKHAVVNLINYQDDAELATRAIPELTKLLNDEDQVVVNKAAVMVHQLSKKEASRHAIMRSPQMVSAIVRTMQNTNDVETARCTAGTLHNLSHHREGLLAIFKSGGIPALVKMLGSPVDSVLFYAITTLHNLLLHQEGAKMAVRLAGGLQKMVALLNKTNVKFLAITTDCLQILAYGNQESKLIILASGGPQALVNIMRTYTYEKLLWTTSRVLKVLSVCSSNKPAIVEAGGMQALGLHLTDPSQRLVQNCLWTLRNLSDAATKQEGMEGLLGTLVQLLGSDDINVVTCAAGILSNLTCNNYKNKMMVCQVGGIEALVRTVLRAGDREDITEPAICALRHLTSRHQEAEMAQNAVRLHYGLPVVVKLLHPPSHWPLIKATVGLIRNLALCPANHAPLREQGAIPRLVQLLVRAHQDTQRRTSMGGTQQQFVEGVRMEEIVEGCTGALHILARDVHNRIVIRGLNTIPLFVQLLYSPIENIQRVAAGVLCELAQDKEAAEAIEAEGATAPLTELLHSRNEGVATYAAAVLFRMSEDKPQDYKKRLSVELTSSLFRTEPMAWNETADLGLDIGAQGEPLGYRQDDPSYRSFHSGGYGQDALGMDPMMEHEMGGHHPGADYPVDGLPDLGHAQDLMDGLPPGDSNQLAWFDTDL
Procedure: Co-Immunoprecipitation. […] In some embodiments, for co-IP experiments, DLD1 cells were treated with compounds for a period of time, e.g., 4 hours. […] Briefly, 30 μL of protein A/G magnetic beads were added to each lysate and incubated for 1 hr at room temperature.

[3] = molecular target: T2, TCF/LEF luciferase reporter in DLD1 cells (Homo sapiens, UniProt P35222); assay: TCF reporter assay in DLD1 cells (4% or 20% FBS); assay type: cell-based; details: DLD1 reporter cells; read-out: TCF reporter IC50
T2 sequence (P35222 2-781): T1 sequence (P35222 2-781 limits assumed)

[4] = molecular target: T3, beta-catenin/TCF4 interaction (Homo sapiens, UniProt P35222); assay type: cell-based; details: read-out: NanoBRET IC50
T3 construct: host or cells: HEK293
T3 sequence (P35222 1-781): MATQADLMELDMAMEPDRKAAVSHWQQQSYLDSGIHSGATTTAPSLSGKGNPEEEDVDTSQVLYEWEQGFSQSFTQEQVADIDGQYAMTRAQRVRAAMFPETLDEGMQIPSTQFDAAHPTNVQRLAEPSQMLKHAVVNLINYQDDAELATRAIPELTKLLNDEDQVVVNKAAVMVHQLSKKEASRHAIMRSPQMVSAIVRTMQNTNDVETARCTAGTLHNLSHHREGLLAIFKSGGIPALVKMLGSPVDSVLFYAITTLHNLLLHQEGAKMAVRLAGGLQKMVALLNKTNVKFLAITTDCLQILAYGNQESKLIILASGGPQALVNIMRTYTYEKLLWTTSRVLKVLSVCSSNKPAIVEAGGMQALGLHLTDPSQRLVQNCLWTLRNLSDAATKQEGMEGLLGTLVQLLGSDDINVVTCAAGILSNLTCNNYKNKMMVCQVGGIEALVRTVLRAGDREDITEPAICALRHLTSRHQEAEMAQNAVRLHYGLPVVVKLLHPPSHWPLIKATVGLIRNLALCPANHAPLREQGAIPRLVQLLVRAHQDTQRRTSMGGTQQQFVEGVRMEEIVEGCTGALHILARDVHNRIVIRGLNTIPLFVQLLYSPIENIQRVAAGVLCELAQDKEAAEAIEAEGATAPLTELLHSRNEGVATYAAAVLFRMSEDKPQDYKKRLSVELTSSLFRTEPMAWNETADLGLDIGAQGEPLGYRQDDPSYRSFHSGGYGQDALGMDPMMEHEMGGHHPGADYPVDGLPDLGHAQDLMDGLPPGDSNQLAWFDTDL

Which “effect on AXIN2 expression level” value ([1]; COLO320DM cells) does the source give for “Ac-PL3-Glu-Npg-B5-Glu-3COOHF-Aib-Ala-Phe-Lys*3-PyrS2-3Thi-BztA-GlnR*3-Ala-NH2 [I-470]” here?
Its value is “no or very little or non-significant effect”.

And the IC50 ([1]; Reduction of AXIN2 transcripts in COLO320DM cells)?
Its IC50 is > 20 µM.

What about the “beta-catenin/TCF4 interaction by co-IP and Western blotting” value [2] of the same substance?
Its value is “not”.

What about the IC50 [3] of the same substance?
The IC50 was > 20 µM.

And the IC50 [4]?
The IC50 was > 20 µM.

— patent publication US20240360179A1, “STAPLED PEPTIDES AND METHODS THEREOF” (FOG PHARMACEUTICALS, INC., priority 2021, published 2024)
